PMC12428237, “Study on the Calcium Transport-Promoting Property and Mechanism of the Peptide–Calcium Complex DEEENDQVK–Ca Based on a Caco-2 Monolayer Model” (Foods, 2025)

What was measured:
Type in all cases: cell-based, human
[1] = tested on: Caco-2 monolayer; assay: Fluo-4 AM fluorescence imaging of intracellular calcium influx; details: samples containing 150 μg/mL calcium, 24 h, Fluo-4 AM 4 μmol/L, confocal microscope
Protocol: Fluorescence imaging based on intracellular calcium influx was conducted to assess the calcium transport-promoting effect in the Caco-2 monolayer following the method of Men et al.. Log-phase cells were seeded at 1.5 × 10^5 cells/well in 35 mm laser confocal dishes and gently agitated to ensure uniform distribution. Cultures were maintained at 37 °C in 5% CO2 with daily medium replacement until confluent monolayers formed. Subsequently, CaCl2, DK + CaCl2, and DK–Ca solutions (each containing 150 μg/mL calcium) were added separately. The group without an added sample served as the control group. Following 24 h of incubation, the cells were washed thrice with prewarmed calcium-/magnesium-free HBSS buffer (pH 7.2). Under light-protected conditions, 200 µL of Fluo-4 AM (4 μmol/L) was applied to cover the cells. Following 30 min incubation at 37 °C and subsequent washes, cells were dark-adapted for 10 min at room temperature for de-esterification. Imaging was conducted using a confocal microscope (excitation at 496 nm, Zeiss LSM980 Airyscan2, Carl Zeiss, Germany ), followed by quantification of the fluorescence intensity with ImageJ 1.54 g software.

[2] = tested on: TRPV6; assay: RT-qPCR, TRPV6 mRNA expression; details: Caco-2 monolayer, 24 h, 2 mg/mL DK–Ca or 2 mg/mL DK + 7.5 mM CaCl2; normalized to GAPDH, 2^-ΔΔCt; n = 3
Protocol: (§1) The expression levels of genes related to calcium transport channels were determined following the method of Li et al.. After 21 days of establishing the Caco-2 monolayer model, the monolayers were treated for 24 h with a complete medium containing 2 mg/mL DK–Ca or 2 mg/mL DK + 7.5 mM CaCl2. The group without an added sample served as the control group. Subsequently, the monolayers were washed thrice with HBSS buffer before cell lysis using 200 μL RNAiso Plus. Total RNA was extracted, and first-strand cDNA synthesis was subsequently performed with the PrimeScript® RT reagent kit as per the kit manufacturer’s instructions. Using cDNA as a template, RT-qPCR was performed with gene-specific primers targeting TRPV6, calbindin-D9k, PMCA1b, occludin, and claudin-2. The standard procedure for PCR amplification was as follows: 95 °C for 30 s, followed by 40 cycles of 95 °C for 5 s, 60 °C for 30 s, and 72 °C for 1 min. Target gene expression level was normalized to GAPDH and calculated using the 2^^(-ΔΔCt) relative quantification method. In experimental groups, GAPDH served as the internal reference gene for normalization. All primer sequences used in this study are detailed in Table S1.

[3] = tested on: calbindin-D9k; assay: RT-qPCR, calbindin-D9k mRNA expression; details: Caco-2 monolayer, 24 h, 2 mg/mL DK–Ca or 2 mg/mL DK + 7.5 mM CaCl2; normalized to GAPDH, 2^-ΔΔCt; n = 3
Protocol: as §1

[4] = tested on: PMCA1b; assay: RT-qPCR, PMCA1b mRNA expression; details: Caco-2 monolayer, 24 h, 2 mg/mL DK–Ca or 2 mg/mL DK + 7.5 mM CaCl2; normalized to GAPDH, 2^-ΔΔCt; n = 3
Protocol: as §1

[5] = tested on: claudin-2; assay: RT-qPCR, claudin-2 mRNA expression; details: Caco-2 monolayer, 24 h, 2 mg/mL DK–Ca or 2 mg/mL DK + 7.5 mM CaCl2; normalized to GAPDH, 2^-ΔΔCt; n = 3
Protocol: as §1

DEEENDQVK–Ca [DK–Ca, complex formed by chemically chelating DK with CaCl2]
fluorescence intensity (intracellular calcium influx) compared to the control group [1]: significantly increased | TRPV6 mRNA expression, upregulation compared to the untreated control group [2]: 2.70 fold | calbindin-D9k mRNA expression, upregulation compared to the untreated control group [3]: 2.26 fold | PMCA1b mRNA expression, upregulation compared to the untreated control group [4]: 2.17 fold | claudin-2 mRNA expression, upregulation compared to the control group [5]: 1.50 fold
